Reference: patent US20240287042A1, “NOVEL COMPOUND HAVING INHIBITORY ACTIVITY AGAINST PENDRIN, AND PHARMACEUTICAL USES THEREOF” (UIF (University Industry Foundation), Yonsei University, priority 2021, published 2024)

Key:
[1] = test system: LPS-induced lung injury model; test: LPS-induced lung injury model in mice, i.v. treatment after LPS; format: in vivo, C57BL/6N mice
Procedure: Lipid polysaccharide (LPS, 200 μg/head) dissolved in 50 μL PBS was injected intranasally into C57BL/6N mice. YPI-A4948 (1, 10 μg/kg) was administered intravenously twice in total at 6 hours and 12 hours after LPS injection, and the mice were euthanized at 24 hours after LPS inhalation to remove the lungs. Immune cell recruitment was confirmed through bronchoalveolar lavage fluid (BALF) obtained by injecting 1 mL of PBS into the removed lung and then re-extracting the PBS. Lung injury parameters were measured by ELISA after lysing lung tissue. The expression level of pendrin protein was confirmed by Western blot, and this was digitalized and measured using a shade measuring instrument (mean±SEM, n=3 per group). Pendrin mRNA levels were determined by real-time quantitative PCR in extracted lung tissue (mean±SEM, n=3 per group). IL-10, MIP-2, IL-6, and TNF-α levels were measured by ELISA in lung tissue lysates (mean±SEM n=4-7 mice per group).

[2] = test system: LPS-induced acute lung injury model; test: LPS-induced acute lung injury model, i.p. pre- and post-treatment; format: in vivo, C57BL/6N mice; conditions: vs vehicle-treated LPS mice
Procedure: Wild-type male C57BL/6N mice aged 8 to 10 weeks and weighing 20-24 g were purchased from Orient Bio (Seongnam, South Korea). […] Specifically, LPS (Escherichia coli, 0111: B4, Sigma) (10 μg/g) dissolved in 50 μL PBS was administered by intranasal (i.n.) inhalation. The control group received 50 μL of sterile PBS through intranasal administration. For pretreatment, YPI-A4948 dissolved in 50 μL DMSO was administered intraperitoneally (i.p) at 0.1 mg/kg, 1.0 mg/kg and 10 mg/kg, respectively, 1 hour before LPS inhalation, and for post-treatment, YPI-A4948 was administered at 0.1 mg/kg, 1.0 mg/kg, and 10 mg/kg, respectively, 12 hours after LPS inhalation. The vehicle control group was intraperitoneally administered with 50 μL DMSO at the same time point as pretreatment and post-treatment. Mice were euthanized 48 hours after LPS inhalation to remove the lungs. In addition, BALF cytospin staining and H&E lung tissue staining were performed to observe the degree of lung injury.

[3] = test system: LPS-induced lung injury mouse model; test: LPS-induced lung injury mouse model with anion supply; format: in vivo, mice; conditions: 5 μg/kg i.v. once 6 h after LPS
Procedure: Specifically, lipid polysaccharide (LPS, 200 μg/head) dissolved in 50 μL PBS was injected intranasally, and 6 hours after LPS inhalation, YPI-A4948 was intravenously administered once at 5 μg/kg, and at the same time, OH^−, HCO3^−, and SCN^− anions were administered intranasally, respectively. The mice were euthanized 24 hours after LPS inhalation to remove the lungs. Then, lung tissue H&E staining was performed to observe the degree of lung injury, and bronchoalveolar lavage fluid (BALF) was extracted in the same manner as in Example 12, and cytopathology staining using BALF total cell count, BALF protein concentration level, and Diff-Quik Stain was performed. Data provided are mean±SEM (n=3-5 per group), scale bar is 50 μm for H&E staining and cytopathology staining imaged at 400×.

SLC26A6 = biological target: T1, SLC26A6 (Homo sapiens, UniProt Q9BXS9); test: SLC26A6 activity, YFP fluorescence in LN-215 cells; format: cell-based; conditions: FIG. 16
T1 construct: expressed in transfected cells
T1 sequence (Q9BXS9 1-759): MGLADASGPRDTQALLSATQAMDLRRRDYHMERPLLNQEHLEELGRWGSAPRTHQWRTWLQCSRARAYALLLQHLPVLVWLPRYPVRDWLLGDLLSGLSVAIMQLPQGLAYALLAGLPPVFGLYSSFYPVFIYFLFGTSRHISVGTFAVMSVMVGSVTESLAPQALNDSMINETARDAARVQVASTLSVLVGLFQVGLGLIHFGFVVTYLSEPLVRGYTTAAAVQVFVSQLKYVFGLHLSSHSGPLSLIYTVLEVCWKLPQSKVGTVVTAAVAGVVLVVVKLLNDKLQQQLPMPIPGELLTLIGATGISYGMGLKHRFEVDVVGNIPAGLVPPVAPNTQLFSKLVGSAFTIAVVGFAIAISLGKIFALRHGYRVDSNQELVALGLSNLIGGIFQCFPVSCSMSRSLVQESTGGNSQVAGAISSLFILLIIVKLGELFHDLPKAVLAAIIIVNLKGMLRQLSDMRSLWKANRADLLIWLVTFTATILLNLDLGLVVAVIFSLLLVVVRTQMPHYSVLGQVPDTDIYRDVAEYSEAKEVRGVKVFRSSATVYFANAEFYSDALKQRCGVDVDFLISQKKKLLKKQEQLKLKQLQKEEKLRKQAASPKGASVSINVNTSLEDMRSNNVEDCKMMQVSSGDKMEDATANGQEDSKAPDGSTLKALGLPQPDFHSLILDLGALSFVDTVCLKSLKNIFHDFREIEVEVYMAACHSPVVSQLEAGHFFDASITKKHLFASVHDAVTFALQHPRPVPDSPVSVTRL
Procedure: In the case of SLC26A3 and SLC26A6, each transporter protein and halide sensitive YFP were expressed in LN-215 cells to measure the activity of the transporter protein.
Other details were carried out in the same manner as Example 5.

[4] = test system: human nasal epithelial cells (HNE); test: Volume of airway surface liquid (ASL) in IL-4-treated differentiated human nasal epithelial cells; format: cell-based; conditions: 30 μM, IL-4 10 ng/ml, 48 hours
Procedure: For differentiation of primary cultures of human nasal epithelial cells, cells were cultured in Transwell (Transwell, Costar Co., Cambridge, MA) with 0.45 µm pores at a density of 2×10^5 cells/cm^2. Cells were cultured in a 1:1 mixed culture medium of Dulbecco's modified Eagle's medium (Lonza) and bronchial epithelial growth medium (Lonza) supplemented with the following growth factors, while changing the medium every 2 to 3 days. The cells were cultured in a precipitated state in the culture medium for the first 7 days, and during the subsequent culture period, and cultured by exposing the upper part of transwell to air. After establishment of the air-liquid interface (ALI), cells were cultured and differentiated for 21 days. At all stages of culture, the cell culture medium was maintained at 5% CO2 and 37° C.
Vehicle, IL-4 (10 ng/ml), and YPI-H05 (30 μM) were added to the basal fluid of transwell in which differentiated NHE cells expressing normal pendrin were growing, and cultured at 37° C. under 5% CO2 in an incubator for 48 hours. After cultured, a round filter paper with a diameter of 10 mm was placed in the lumen side of the transwell and left for 10 seconds to absorb moisture from the airway surface liquid. Changes in the volume of airway surface liquid were measured through increased filter paper weight using a precision electronic balance.

[5] = i.v. 1, 10 μg/kg at 6 and 12 h after LPS, vs LPS only
[6] = i.p. 0.1, 1.0, 10 mg/kg 1 h before and 12 h after LPS

For `Cc1ccc2[nH]c(C(=O)O)c(CC(=O)N3CCN(c4c(C)cccc4Cl)CC3)c2c1` [YPI-A4948, 3-(2-(4-(2-Chloro-6-methylphenyl)piperazin-1-yl)-2-oxoethyl)-5-methyl-1H-indole-2-carboxylic acid], the “Lung inflammatory cytokine IL-6” value ([1]; ELISA in lung tissue lysates) was “statistically significantly reduced”, the “Lung inflammatory cytokine IL-10” value ([1]; ELISA in lung tissue lysates) was “statistically significantly reduced” and the “Lung inflammatory cytokine MIP-2” value ([1]; ELISA in lung tissue lysates) was “statistically significantly reduced”. The “Lung inflammatory cytokine TNF-α” value ([1]; ELISA in lung tissue lysates) was “statistically significantly reduced”, the BALF protein concentration [1, 5] was “significantly reduced” and the “BALF total cell counts” value [1, 5] was “significantly reduced”. The “Level of pendrin mRNA in lung” value [1, 5] was “significantly reduced”, the “Level of pendrin protein in lung” value [1, 5] was “significantly reduced” and the BALF protein concentration [2, 6] was “significantly reduced”. For the same compound, the “BALF total cell counts” value [2, 6] was “significantly reduced”, the “Lung injury (BALF cytospin and H&E lung tissue staining)” value ([2]; i.p. before and after LPS) was “significantly reduced” and the Lung injury [3] was “reduced”. The “Lung injury improvement effect when OH−, HCO3−, SCN− anions are supplied intranasally” value [3] was “weakened only by SCN^−” and the “Effect on activity of SLC26A6” value (SLC26A6) was “did not inhibit”.
In the case of `Cc1ccc(C)c(N2CCN(C(=O)Cc3c(C(=O)O)[nH]c4ccc(Cl)cc34)CC2)c1` [YPI-H05, 5-chloro-3-(2-(4-(2,5-dimethylphenyl)piperazin-1-yl-)-2-oxoethyl)-1H-indole-2-carboxylic acid], the “Volume of airway surface liquid (ASL) reduced by IL-4” value [4] is reported as “significantly increased”.
